Experimental data reported in patent US20240277767A1, “METHODS AND USES” (PROLEUKOCYTE AB, priority 2021, published 2024).

Legend:
[1] = system: cancer cells; conditions: high doses (Stafford et al., 2018; Rigobello et al., 2008); cited from earlier work
[2] = system: ANRU TIL; assay: TIL infiltration into ANRU spheroids (flow cytometry, confocal microscopy); format: cell-based, human; conditions: 48 h co-culture
Excerpt: To study TIL infiltration into spheroids, eight spheroids of each condition were pooled and carefully washed twice with PBS, dissociated with trypsin and then stained with anti-CD3, CD4 and anti-CD8. The supernatant was collected to measure the non-infiltrated fraction.
For confocal microscopy, spheroids were fixed with 4% PFA (Thermo Scientific). Spheroids stained with anti-CD8a followed by the secondary antibody (goat-anti-mouse IgG-AF647, Biolegend) and Hoechst 33342 dye (Invitrogen). Spheroids were cleared with 88% glycerol (Sigma) overnight, transferred to 8-well u-slides (Ibidi) and imaged with the Zeiss LSM800 confocal microscope. Spheroids were also analyzed for T cell infiltration using flow cytometry, see above.

[3] = system: CD8+ T cells; assay: IFNγ release by expanded healthy donor CD8+ T cells by pre-treatment time; format: cell-based, human
[4] = system: Nrf2 target genes (NQO1, HMOX1, TXNRD1, Keap1); assay: qPCR of classical Nrf2 target genes in TIL; format: cell-based, human
Procedure: Lymphocytes were pre-treated with AUF, SUL or DMF as described above. RNA was isolated using TRIzol™ Plus RNA Purification Kit (Invitrogen). cDNA was generated using the iScript™ cDNA Synthesis Kit (Bio-Rad) and qPCR was done using iTaq™ Universal SYBR® Green Supermix (Bio-Rad) in the CFX96 Touch Real-Time PCR Detection System (Bio-Rad). Fold change expression from untreated cells was calculated using the 2^-ΔΔCt formula with b-actin as reference gene. Evaluated genes were NAD(P)H Quinone Dehydrogenase 1 (NQO1), Kelch Like ECH Associated Protein 1 (Keap1), Heme Oxygenase 1 (HMOX1) and Thioredoxin Reductase 1 (TXNRD1).

[5] = system: tumour infiltrating lymphocytes (TIL); assay: IFNγ release by pre-treated TIL on autologous tumour cells after H2O2 treatment; format: cell-based, human; conditions: KADA and ANRU melanoma TIL, E:T 4:1, vs control group
Procedure: ., 2020). […] For Nrf2 inhibition, NK cells were treated with 50 μM ML-385 (Sigma-Aldrich) in parallel. […] Cells were washed with medium and then used for further experiments. For monocyte experiments, autologous NK cell-monocytes or TIL-monocytes were used. […] Stimulated monocytes were activated with 100 ng/ml PMA for 1 min, washed and added at indicated ratio, the number of NK cell/TIL was kept constant. […] For cytokine release assay, NK cells and TIL were cultured with indicated tumour cells at the effector target ratio 4:1 (E:T) for 24 h in U-bottom plates. IFNγ secretion was measured using human IFN-γ ELISA development kit (Mabtech) following the manufacturer's instructions.

[6] = system: NK cells; assay: Intracellular ROS levels in NK cells (CellROX, flow cytometry); format: cell-based, human
Procedure: (§1) For Nrf2 inhibition, NK cells were treated with 50 μM ML-385 (Sigma-Aldrich) in parallel. For H2O2 treatment, lymphocyte cells were washed and resuspended to 1×10^6 cells/mL in medium and exposed to indicated H2O2 (Sigma-Aldrich) concentration for 1 h at 37° C. Cells were washed with medium and then used for further experiments. For monocyte experiments, autologous NK cell-monocytes or TIL-monocytes were used. NK cells/TIL were isolated and pre-treated with 0.5 μg/mL AUF, as described above, and co-cultured with unstimulated at the ratio, 1:2 M:NK, or stimulated monocytes at the ratio, 1:1 M:NK, if not indicated otherwise. Stimulated monocytes were activated with 100 ng/ml PMA for 1 min, washed and added at indicated ratio, the number of NK cell/TIL was kept constant. As control, H2O2 was used at indicated concentration. Cells were co-cultured for 2 h and then effector cells were stained for intracellular ROS (see flow cytometry) or used as effector cells in Cr^51 release assay (E:T ratio 10:1).
For detection of intracellular ROS levels, for NK cells CellROX™ Deep Red Reagent (Invitrogen) were used. Briefly, NK cells were stained with 2.5 μM CellROX solution in RPMI for 30 min at 37° C. and then stained for flow cytometry with anti-CD56 and anti-CD3 (both Biolegend).

[7] = system: tumour infiltrating lymphocytes (TIL); assay: Intracellular ROS levels in TIL (CM-H2DCFDA, flow cytometry); format: cell-based, human
Procedure: as §1
For TIL, T cells were pre-incubated with 10 μM CM-H2DCFDA (Thermo Fisher Scientific) solution in RPMI for 30 min at 37° C. prior to H2O2 treatment and then stained with anti-CD3, anti-CD4 and anti-CD8.

[8] = system: tumour infiltrating lymphocytes (TIL); assay: [Cr51]-release assay: lysis of autologous tumour cells by pre-treated TIL; format: cell-based, human
Procedure: Melanoma patient derived TIL and CD19 directed CAR T cells were generated as previously described (Magalhaes et al., 2018; Lövgren et al., 2020).
Lymphocytes were pre-treated for 18 h with Auranofin (AUF, with the concentration 1 μg/mL for NK cells and 0.5 μg/mL for TIL, if not indicated differently), DL-Sulforaphane (SUL) or Dimethyl Fumarate (DMF) (all Sigma-Aldrich) at indicated concentrations.
as §1
For cytotoxic assay, a standard 4 h [Cr^51]-release assay was used. Briefly, tumour cells were harvested and labeled with 51Cr (PerkinElmer) and used as target cells. Effector cells, NK cells and T cells, were co-cultured in 96-well V-bottom plate with indicated tumour cells at the stated effector target ratio (E:T). The supernatant was collected onto LUMA plates (Perkin-Elmer) and radioactivity/tumour cell lysis was detected by MicroBeta2 (Perkin Elmer). Target cell killing measured by % specific lysis and calculated using the formula: ((experimental release-spontaneous release)/(maximum release-spontaneous release))*100.

[9] = system: NK cells; assay: Phenotype analysis of NK cell surface markers (flow cytometry); format: cell-based, human
Procedure: All antibodies (see Table 1) and FACS reagents were used according to manufactures recommendation, if not stated otherwise. All antibodies had been titrated for optimal signal-to-noise ratio and all staining's were performed in PBS supplemented with 1% FBS. All staining's contained a live/dead marker. Samples were fixed with 2% PFA (Thermo scientific) for 15 min before acquired on a NovoCyte (ACEA Biosciences) and analysed using FlowJo Software (TreeStar).
For evaluating CD16 expression, NK cells were treated as described above. After H2O2 treatment, NK cells were incubated for 2 h in RPMI 2% AB serum, stained with anti-CD3, anti-CD56 and anti-CD16 and analyzed.

SMILES: CC(=O)OC[C@H]1O[C@@H]([S-])[C@H](OC(C)=O)[C@@H](OC(C)=O)[C@@H]1OC(C)=O.CCP(CC)CC.[Au+] [AUF, Auranofin]
- Toxicity / cell death in cancer cells [1]: toxic and induce cell death
- Capacity of TIL to infiltrate the spheroid [2]: no difference
- Pre-treatment time after which a protective effect was observed in T cells [3]: 8 to 12 h
- Time of HMOX1 expression peak in TIL [4]: 3 h
- Activation of Nrf2 target genes in TIL ([4]; TIL from three melanoma patients KADA, ANRU, BEHA): robust activation
- Recognition of autologous tumour cells by TIL (IFNγ production) upon exposure to H2O2 [5]: increased recognition of their autologous tumour cells
- Intracellular fluorescence of the ROS indicator in NK cells vs controls ([6]; 72 h after AUF removal): no differences
- Intracellular fluorescence of the ROS indicator in NK cells ([6]; H2O2 challenge 0-48 h after AUF removal): significantly lower intracellular fluorescence of the ROS indicator
- Intracellular ROS levels in NK cells and TIL after H2O2 treatment ([6]; up to 72 h after compound removal): decreased intracellular ROS levels
- Intracellular ROS levels in NK cells ([6]; without addition of H2O2): significantly reduced intracellular ROS levels
- Effect on intracellular ROS levels in TIL ([7]; 72 h after AUF removal): effects remained
- Fluorescence correlating to intracellular ROS levels in TIL ([7]; KADA and BEHA TIL): lowered
- Lysis of autologous tumour cells by TIL after AUF removal ([8]; 0-72 h after AUF removal, H2O2): increased lysis of autologous tumour cells
- Specific lysis of autologous tumour cells by TIL ([8]; KADA, also in the absence of ROS): clearly higher
- Time after AUF withdrawal until which increased lysis by TIL lasted ([8]; highest AUF concentration): 72 h
- Differences in NK cell surface markers with and without AUF pre-treatment ([9]; DNAM-1, granzyme B, perforin, CD57, CD69, NKG2A, NKG2D, NKp40, NKp46): few differences
- Frequency of NK cells expressing CD16 after exposure to H2O2 ([9]; untreated compared to AUF pre-treated NK cells): significant decrease in frequency of untreated NK cells expressing CD16
- NKp30 expression on NK cells ([9]; upon exposure to H2O2): increased expression
- DNAM-1 and NKp46 on NK cells ([9]; with exposure to H2O2): reduced frequency of positive NK cells and/or reduced cell surface levels
- DNAM-1, CD69 and NKG2D on NK cells ([9]; without exposure to H2O2): reduced frequency of positive NK cells and/or reduced cell surface levels
